Experimental data taken from article PMC12024264, “Frog Skin Peptides Hylin-a1, AR-23, and RV-23: Promising Tools Against Carbapenem-Resistant Escherichia coli and Klebsiella pneumoniae Infections” (Antibiotics, 2025).
Where no end group is shown, it is not given here.

Assays:
HaCaT cells = assay: MTT cytotoxicity assay on HaCaT keratinocytes; assay type: cell-based, human; details: for 50% cytotoxic concentration (CC50): HaCaT keratinocytes, 20 h exposure, 0.39 to 100 μM; for CC50 obtained by the fitting of the curves: HaCaT, 20 h, Figure 1
Description: To evaluate their safety profile, cytotoxicity assays were performed on HaCaT keratinocytes. Cells were exposed for 20 h to peptides at doses ranging from 0.39 to 100 μM.
Figure 1 Dose–response curves for the AMPs against HaCaT cell line and CC50 (reported in μM), HillSlope, and R^2 values were obtained by the fitting of the curves. The viability effect of Hylin-a1, AR-23, and RV-23 was analyzed on HaCaT cells. The cell monolayer was treated with serial dilutions of peptides for 20 h. Untreated cells were used as a positive control, while dimethyl sulfoxide (DMSO) was used as a negative control. HillSlope: The measure of the steepness of the dose–response curve. […] R^2 (coefficient of determination) indicates how well the model fits the data. Ranges from 0 to 1, with 1 representing a perfect fit.
The cytotoxic effect of peptides was examined using 3-(4,5 dimethylthiazol-2-yl)-2,5-diphenyltetrazolium bromide (MTT), as previously described. Cell viability, expressed as a percentage, was calculated in relation to the viability of untreated cells (+). DMSO was used as negative control (−). The human keratinocyte cell line HaCaT (Cell Lines Service, CLS-, Eppelheim, Germany) was used as a cellular model to evaluate the peptides’ cytotoxicity. HaCaT cells were grown in Dulbecco’s Modified Eagle Medium (DMEM) with 4.5 g/L of glucose (Microtech, Naples, Italy) supplemented with an antibiotic solution 100× (Himedia, Naples, Italy) and 10% Fetal Bovine Serum (FBS, Microtech).

E. coli ATCC 25992 [1] = assay: Biofilm initial cell attachment assay; assay type: cell-based, Escherichia coli; details: 2 h; for concentration of total reduction in biofilm attachment (antibiofilm MIC): initial cell attachment, 37 °C, peptides 50-1.56 μM, absorbance 570 nm
Description: We also investigated the ability of peptides to interfere with biofilm using three different assays (refer to the Section 4) against K. pneumonia and E. coli.
Figure 3 The effect of Hylin-a1, AR-23, and RV-23 on the initial cell attachment of biofilm formation. […] Statistical analysis was performed by One-way ANOVA followed by Dunnett’s multiple comparisons test.
The anti-biofilm activity of peptides was evaluated against E. coli and K. pneumoniae ATCC strains. Bacterial cultures were grown overnight, then diluted to an OD600 of 0.1 in MH broth supplemented with 1% (v/v) glucose. A 100 μL aliquot of the bacterial suspension was combined with an equal volume of peptides at non-cytotoxic concentrations in a 96-well plate and incubated at 37 °C for 2 h. Following incubation, non-adherent planktonic cells were removed by washing with phosphate-buffered saline (PBS, Microtech), and adherent cells were incubated with MTT solution for 3 h at 37 °C. Additionally, adherent cells were collected, resuspended in PBS, and plated on agar for viable cell counting. Serial dilutions were performed for each peptide, and CFU/mL were determined after 20 h of incubation at 37 °C (Figure S2). Absorbance was measured at 570 nm to evaluate adhesion percentage.

E. coli ATCC 25992 [2] = assay: Time-kill assay; assay type: cell-based, Escherichia coli
Description: (§1) This in vitro method allows for assessing the kinetics of bacterial killing by peptides over time. […] Specifically, at each time point, 50 μL aliquots of the bacterial–peptide mixtures were collected and plated on agar (see Materials and Methods for further details). Following incubation, colony-forming units (CFUs) were counted and the killing rate of each peptide concentration was calculated (Figure 2).
(§2) Figure 2 Evaluation of the kinetic-killing effect of Hylin-a1, AR-23, and RV-23 against K. pneumoniae and E. coli. […] Untreated bacteria was used as control negative (CTR- in black).
(§3) Using the same conditions as the MIC assay, a time–kill test was performed to monitor bacterial growth over time. […] Finally, bacterial colonies were counted, and the CFU/mL was calculated.

K. pneumoniae ATCC 10031 = assay: Time-kill assay; assay type: cell-based, Klebsiella pneumoniae
Description: as §1, §2, §3

Serum stability assay = assay type: in vitro ADME, bovine; details: 10% FBS
Description: The susceptibility of Hylin-a1, AR-23, and RV-23 to proteolytic degradation in serum was evaluated, following the protocol reported in Section 4.3.
Figure 6 AMP stability in serum. Stability profiles of Hylin-a1 (red line), AR-23 (gray line), and RV-23 (black line) are reported. All stability tests were performed at least in triplicate. LC-MS analyses were performed using an Agilent 1260 Infinity II LC/MSD system (Milan, Italy). The percentages of intact peptides after different time points of incubation in serum were determined by integrating RP-HPLC peaks from the chromatograms recorded at a wavelength of 210 nm. The test was performed in triplicate, and the data are presented as mean values, with error bars representing standard deviations.
Peptides were mixed with 10% FBS at a final concentration of 0.2 mg/mL and incubated in a water bath at 37 °C. […] Then, the mixture was diluted with 0.1% TFA in H2O (1:1). Samples were characterized using LC-MS on a C18 Aeris Peptide column (100 × 2.1 mm), applying a linear gradient from 5 to 80% solvent B (0.1% TFA in CH3CN) over solvent A (0.1% TFA in water) in 15 min at a flow rate of 0.2 mL/min. All stability tests were performed at least in triplicate. LC-MS analyses were performed using an Agilent 1260 Infinity II LC/MSD system (Milan, Italy).

E. coli = assay: Checkerboard assay with meropenem; details: for MIC of peptide in combination with meropenem: checkerboard, 20 h, OD600
E. coli 3140 = details: carbapenemase OXA-48 (class D), urine; microdilution, 37 °C, 20 h; N/D = no antibacterial activity detected
Description: (§4) Each strain was grown in Mueller Hinton Broth (MH Broth), and 5 × 10^5 CFU/mL was used to evaluate antibacterial activity. Clinical carbapenem-resistant K. pneumoniae and E. coli isolates were collected at the AOU of Virology and Microbiology of the University of Campania “Luigi Vanvitelli”.
(§5) The antimicrobial activity of Hylin-a1, AR-23, and RV-23 was investigated using a microdilution assay as reported by the National Committee on Clinical Laboratory Standards (NCCLS) guidelines against a broad spectrum of Gram-negative bacteria. […] In 96-well, the standardized bacterial inoculum (5 × 10^5 colony forming units, CFU/mL) was inoculated together with AMPs and incubated at 37 °C for 20 h. After the time of incubation, optical density (OD) was measured at TECAN, and data were expressed as a percentage of inhibition. In addition to assessing the MIC values, the bactericidal effect was also studied as reported elsewhere.

E. coli 2267 = details: carbapenemase NDM (class B), rectal swab, N/D = no antibacterial activity detected; for MIC: microdilution, 37 °C, 20 h
Description: as §4, §5

Substance	50% cytotoxic concentration (CC50) (HaCaT cells) [µM]	CC50 obtained by the fitting of the curves (HaCaT cells) [µM]	reduction of biofilm (initial attachment) (E. coli ATCC 25992 [1]; at 50 μM)	concentration of total reduction in biofilm attachment (antibiofilm MIC) (E. coli ATCC 25992 [1]) [µM]	bacterial killing in time-kill assay (E. coli ATCC 25992 [2])	bacterial killing in time-kill assay (K. pneumoniae ATCC 10031)	remaining at 16 h (Serum stability assay; serum, after 16 h, 0.2 mg/mL, 37 °C, RP-HPLC peaks at 210 nm, mean of triplicate, read-out: intact peptide remaining in solution) [%]	MIC of peptide in combination with meropenem (E. coli) [µM]	combinatory effect of peptide and meropenem (E. coli; interpretation of FICI by Table 4)	MIC (E. coli 3140) [µM]	MBC (E. coli 2267) [µM]	MIC (E. coli 2267) [µM]	time to significant reduction in bacterial viability / bactericidal effect (E. coli ATCC 25992 [2]) [h]	time to significant reduction in bacterial viability / bactericidal effect (K. pneumoniae ATCC 10031) [h]	percentage of intact fragments, almost constant up to 24 h (Serum stability assay; 0.2 mg/mL, 37 °C, RP-HPLC peaks at 210 nm, mean of triplicate, after the first 2 h up to 24 h)	half-life (Serum stability assay; serum, peptide 0.2 mg/mL, 37 °C water bath, ethanol precipitation, LC-MS, RP-HPLC peak integration at 210 nm, at least triplicate) [h]
IFGAILPLALGALKNLIK-NH2 [Hylin-a1]	100	102.6	80–100%	50	kills bacteria	kills bacteria	60	3.125	partial synergism	50	50	25				
RIGVLLARLPKLFSLFKLMGKKV-NH2 [RV-23]	100	101.8		12.5				6.25		25	12.5	12.5	≤ 2	≤ 2	around 30%	< 2
